Source: ChEMBL document CHEMBL5550112, “Development of a fluorescent ligand that can illuminate nuclear G-quadruplexes and modulate oncogene expression” (Bioorg Med Chem, 2024)
pIC50, pKd: −log10 of the molar value. Activity calls are given as the source filed them. The calls are words filed in the database; no cut-off is given here.

Assays:
Quadruplex DNA [1] = experiment: Binding affinity to 3'-Cy5-labelled c-MYC G-quadruplex DNA (unknown origin) assessed as decrease in Cy5 fluorescence upto 5 uM by fluorescence quenching analysis; format: nucleic-acid assay
Quadruplex DNA [2] = experiment: Binding affinity to 5'-Cy5-labelled c-MYC G-quadruplex DNA (unknown origin) assessed as dissociation constant by fluorescence quenching analysis; format: nucleic-acid assay
Quadruplex DNA [3] = experiment: Binding affinity to 3'-Cy5-labelled c-MYC G-quadruplex DNA (unknown origin) assessed as dissociation constant by fluorescence quenching analysis; format: nucleic-acid assay
Quadruplex DNA [4] = experiment: Binding affinity to c-MYC G-quadruplex DNA (unknown origin) assessed as imino proton signal by NMR spectral analysis; format: nucleic-acid assay
Quadruplex DNA [5] = experiment: Binding affinity to G-quadruplex DNA in human MDA-MB-231 cells assessed as increase in fluorescence at 2 uM incubated for 30 mins by DNase I digestion based confocal microscopic analysis; format: cell-based
Quadruplex DNA [6] = experiment: Binding affinity to G-quadruplex DNA in human MDA-MB-231 cells assessed as increase in fluorescence at 2 uM incubated for 30 mins by RNase A digestion based confocal microscopic analysis; format: cell-based
Quadruplex DNA [7] = experiment: Displacement of […] from G-quadruplex DNA in human MDA-MB-231 cells assessed as increase in fluorescence at 2 uM preincubated for 30 mins followed by PDS addition and measured after 20 mins by Hoechst 33342 staining based confocal microscopic analysis; format: cell-based; settings: time 50.0 min
Quadruplex DNA [8] = experiment: Binding affinity to G-quadruplex DNA in human MDA-MB-231 cells assessed as increase in fluorescence at 2 uM incubated for 30 mins in presence of dimethyl sulfate by Hoechst 33342 staining based confocal microscopic analysis; format: cell-based
HEK-293T [9] = experiment: Effect on c-MYC gene expression in human HEK293T cells co-transfected with c-Myc promoter luciferase reporter assessed as decrease in c-MYC expression by measuring reduction in firefly luciferase expression at 10 to 20 uM incubated for 24 hrs by firefly luciferase based microplate analysis; format: functional, cell-based; settings: dose 10-20 µM
HEK-293T [10] = experiment: Effect on KRAS gene expression in human HEK293T cells co-transfected with KRAS promoter luciferase reporter assessed as decrease in KRAS expression by measuring reduction in firefly luciferase expression at 10 to 20 uM incubated for 24 hrs by firefly luciferase based microplate analysis; format: functional, cell-based; settings: dose 10-20 µM
MDA-MB-231 [11] = experiment: Induction of apoptosis in human MDA-MB-231 cells assessed as downregulation of c-MYC gene expression at 10 to 20 uM incubated for 24 hrs by RT-PCR analysis; format: functional, cell-based; settings: dose 10-20 µM
MDA-MB-231 [12] = experiment: Induction of apoptosis in human MDA-MB-231 cells assessed as downregulation of KRAS gene expression at 10 to 20 uM incubated for 24 hrs by RT-PCR analysis; format: functional, cell-based; settings: dose 10-20 µM
MDA-MB-231 [13] = experiment: Induction of apoptosis in human MDA-MB-231 cells assessed as downregulation of c-MYC protein expression at 10 to 20 uM incubated for 24 hrs by Western blot analysis; format: functional, cell-based; settings: dose 10-20 µM
MDA-MB-231 [14] = experiment: Induction of apoptosis in human MDA-MB-231 cells assessed as downregulation of KRAS protein expression at 10 to 20 uM incubated for 24 hrs by Western blot analysis; format: functional, cell-based; settings: dose 10-20 µM
MDA-MB-231 [15] = experiment: Induction of apoptosis in human MDA-MB-231 cells assessed as downregulation of PARP protein expression at 10 to 20 uM incubated for 24 hrs by Western blot analysis; format: functional, cell-based; settings: dose 10-20 µM
MDA-MB-231 [16] = experiment: Induction of apoptosis in human MDA-MB-231 cells assessed as […] protein expression at 10 to 20 uM incubated for 24 hrs by Western blot analysis; format: functional, cell-based; settings: dose 10-20 µM
MDA-MB-231 [17] = experiment: Induction of cell cycle arrest in human MDA-MB-231 cells assessed as accumulation of cells at sub-G1 phase at 10 uM incubated for 24 hrs by flow cytometry (reference value: 0.6 %); format: functional
MDA-MB-231 [18] = experiment: Induction of cell cycle arrest in human MDA-MB-231 cells assessed as accumulation of cells at sub-G1 phase at 15 uM incubated for 24 hrs by flow cytometry (reference value: 0.6 %); format: functional
MDA-MB-231 [19] = experiment: Induction of cell cycle arrest in human MDA-MB-231 cells assessed as accumulation of cells at sub-G1 phase at 20 uM incubated for 24 hrs by flow cytometry (reference value: 0.6 %); format: functional
MDA-MB-231 [20] = experiment: Induction of cell cycle arrest in human MDA-MB-231 cells assessed as accumulation of cells at G0-G1 phase at 10 uM incubated for 24 hrs by flow cytometry (reference value: 69.6 %); format: functional
MDA-MB-231 [21] = experiment: Induction of cell cycle arrest in human MDA-MB-231 cells assessed as accumulation of cells at G0-G1 phase at 15 uM incubated for 24 hrs by flow cytometry (reference value: 69.6 %); format: functional
MDA-MB-231 [22] = experiment: Induction of cell cycle arrest in human MDA-MB-231 cells assessed as accumulation of cells at G0-G1 phase at 20 uM incubated for 24 hrs by flow cytometry (reference value: 69.6 %); format: functional
MDA-MB-231 [23] = experiment: Induction of cell cycle arrest in human MDA-MB-231 cells assessed as accumulation of cells at S phase at 10 uM incubated for 24 hrs by flow cytometry (reference value: 13 %); format: functional
MDA-MB-231 [24] = experiment: Induction of cell cycle arrest in human MDA-MB-231 cells assessed as accumulation of cells at S phase at 15 uM incubated for 24 hrs by flow cytometry (reference value: 13 %); format: functional
MDA-MB-231 [25] = experiment: Induction of cell cycle arrest in human MDA-MB-231 cells assessed as accumulation of cells at S phase at 20 uM incubated for 24 hrs by flow cytometry (reference value: 13 %); format: functional
MDA-MB-231 [26] = experiment: Induction of cell cycle arrest in human MDA-MB-231 cells assessed as accumulation of cells at G2-M phase at 10 uM incubated for 24 hrs by flow cytometry (reference value: 16.8 %); format: functional
MDA-MB-231 [27] = experiment: Induction of cell cycle arrest in human MDA-MB-231 cells assessed as accumulation of cells at G2-M phase at 15 uM incubated for 24 hrs by flow cytometry (reference value: 16.8 %); format: functional
MDA-MB-231 [28] = experiment: Induction of cell cycle arrest in human MDA-MB-231 cells assessed as accumulation of cells at G2-M phase at 20 uM incubated for 24 hrs by flow cytometry (reference value: 16.8 %); format: functional
MDA-MB-231 [29] = experiment: Inhibition of cell migration in human MDA-MB-231 cells at 10 to 20 uM incubated for 24 hrs by reverse-phase microscopy based scratch wound healing assay; format: functional; settings: dose 10-20 µM
MDA-MB-231 [30] = experiment: Inhibition of colony formation in human MDA-MB-231 cells at 1.5 to 6 uM incubated for 3 days by crystal violet staining based analysis; format: functional, cell-based; settings: dose 1.5-6 µM, time 3.0 day
MDA-MB-231 [31] = experiment: Antiproliferative activity against human MDA-MB-231 cells assessed as inhibition of cell growth incubated for 24 hrs by CCK-8 assay; format: functional, cell-based; settings: MDA-MB-231, 24 h
MDA-MB-231 [32] = experiment: Antiproliferative activity against human MDA-MB-231 cells cultured as 3D tumor spheroids assessed as inhibition of tumor volume incubated for 7 days; format: functional, cell-based; settings: time 7.0 day
MDA-MB-231 [33] = experiment: Induction of cell death in human MDA-MB-231 cells cultured as 3D tumor spheroids assessed as increase in red fluorescence intensity at 20 uM incubated for 7 days by propidium iodide staining based imaging analysis; format: functional; settings: time 7.0 day
MDA-MB-231 [34] = experiment: Induction of cell death in human MDA-MB-231 cells cultured as 3D tumor spheroids assessed as increase in red fluorescence intensity at 40 uM incubated for 7 days by propidium iodide staining based imaging analysis; format: functional; settings: time 7.0 day

Activity (Quadruplex DNA [1]): Active
pKd (Quadruplex DNA [2]): 5.96
pKd (Quadruplex DNA [3]): 6.00
Activity (Quadruplex DNA [4]): Active
pIC50 (MDA-MB-231 [31]): 4.88
Compound: CCn1c2ccccc2c2cc(/C=C/c3sc4ccccc4[n+]3C)ccc21.[I-]
Activity (Quadruplex DNA [5]): inactive
Activity (Quadruplex DNA [6]): Active
Activity (Quadruplex DNA [7]): inactive
Activity (Quadruplex DNA [8]): inactive
Activity (HEK-293T [9]): Active
Activity (HEK-293T [10]): Active
Activity (MDA-MB-231 [11]): Active
Activity (MDA-MB-231 [12]): Active
Activity (MDA-MB-231 [13]): Active
Activity (MDA-MB-231 [14]): Active
Activity (MDA-MB-231 [15]): Active
Activity (MDA-MB-231 [16]): Active
Activity (MDA-MB-231 [17]): 3%
Activity (MDA-MB-231 [18]): 32.3%
Activity (MDA-MB-231 [19]): 56.7%
Activity (MDA-MB-231 [20]): 66.5%
Activity (MDA-MB-231 [21]): 47.2%
Activity (MDA-MB-231 [22]): 28.3%
Activity (MDA-MB-231 [23]): 14.5%
Activity (MDA-MB-231 [24]): 10.2%
Activity (MDA-MB-231 [25]): 8.6%
Activity (MDA-MB-231 [26]): 16%
Activity (MDA-MB-231 [27]): 10.3%
Activity (MDA-MB-231 [28]): 6.4%
inhibition (MDA-MB-231 [29]): Active
inhibition (MDA-MB-231 [30]): Active
Activity (MDA-MB-231 [32]): Dose-Dependent Effect
Activity (MDA-MB-231 [33]): Active
Activity (MDA-MB-231 [34]): Active
